Source: patent publication EP3010915B1 (priority 2013, dated 2014)

These molecules were tested on heme oxygenase 1 (HMOX1) (assay: Expression array experiments). Conditions: multiple cell lines; data not shown.
Format: cell-based
Protocol: As HMOX1 is known to be regulated by H3 methylation in the promoter (Krieg, A. J., et al. Mol Cell Biol 2010, 30 (1), 344-53), the effect of the test compounds on HMOX1 expression in T-47D cells was determined (see Tables 6 and 7).
With `C/C(=N\NC(=O)c1cccc(S(=O)(=O)N2CCOCC2)c1)c1cc(Cl)ccc1O` [Compound 12, (E)-N'-(1-(5-chloro-2-hydroxyphenyl)ethylidene)-3-(morpholinosulfonyl)benzohydrazide] the “transcriptional changes, HMOX1” value was “one of the most consistently up-regulated genes”.

The molecules below were run against T1, LSD1 (Homo sapiens, UniProt O60341) (assay: not given). Conditions: not given.
T1 construct: purchased Cayman Chemical Company 700120
Format: biochemical
`Cc1cn(C(=O)c2cccc(S(=O)(=O)N3CCOCC3)c2)nc1-c1cc(Cl)ccc1O` [Compound 37, (3-(5-chloro-2-hydroxyphenyl)-4-methyl-1H-pyrazol-1-yl)(3-(morpholinosulfonyl)phenyl)methanone] was tested, and the IC50 was > 3 µM.
In the case of `C/C(=N\NC(=O)c1cccc(S(=O)(=O)N2CCOCC2)c1)c1cccc(Cl)c1F` [Compound 13], the IC50 is reported as > 3 µM.
For `C/C(=N\NC(=O)c1cccc(S(=O)(=O)N2CCOCC2)c1)c1cccnc1` [Compound 22], the IC50 was > 3 µM.
In the case of `CC/C(=N\NC(=O)c1cccc(S(=O)(=O)N2CCOCC2)c1)c1cc(Cl)ccc1O` [Compound 21, (E)-N'-(1-(5-CHLORO-2-HYDROXYPHENYL)PROPYLIDENE)-3-(MORPHOLINOSULFONYL)BENZOHYDRAZIDE], the IC50 is reported as > 3 µM.
For `C/C(=N\NC(=O)c1cccc(S(=O)(=O)N2CCOCC2)c1)c1cc(Cl)ccc1F` [Compound 27, (E)-N'-(1-(5-chloro-2-fluorophenyl)ethylidene)-3-(morpholinosulfonyl)benzohydrazide], the IC50 was > 3 µM.
In the case of `COc1ccc(Cl)cc1C(=O)NNC(=O)c1cc(S(=O)(=O)N2CCOCC2)ccc1F` [Compound 6], the IC50 is reported as > 3 µM.
Molecule `C/C(=N\NC(=O)c1cccc(S(=O)(=O)N2CCOCC2)c1)c1cc(Cl)ccc1O` [Compound 12, (E)-N'-(1-(5-chloro-2-hydroxyphenyl)ethylidene)-3-(morpholinosulfonyl)benzohydrazide] has an IC50 of 0.013 µM.
With `C/C(=N\NC(=O)c1cccc(S(=O)(=O)N2CCOCC2)c1)c1ccnc(Cl)c1` [Compound 15] the IC50 was > 3 µM.
For `C/C(=N\NC(=O)c1cccc(S(=O)(=O)N2CCOCC2)c1)c1cc(Cl)ccc1Cl` [Compound 16], the IC50 was > 3 µM.
With `C/C(=N\NC(=O)c1cccc(S(=O)(=O)N2CCOCC2)c1)c1cc(Cl)ccc1[N+](=O)[O-]` [Compound 32, (E)-N'-(1-(5-chloro-2-nitrophenyl)ethylidene)-3-(morpholinosulfonyl)benzohydrazide] the IC50 was > 3 µM.
For `C/C(=N\NC(=O)c1ccccc1)c1c(O)cccc1O` [Compound 14], the IC50 was > 3 µM.
In the case of `C/C(=N\NC(=O)c1ccccc1S(=O)(=O)N1CCOCC1)c1cc(Cl)ccc1O` [Compound 28, (E)-N'-(1-(5-chloro-2-hydroxyphenyl)ethylidene)-2-(morpholinosulfonyl)benzohydrazide], the IC50 is reported as > 3 µM.
For `C/C(=N\NC(=O)c1ccc(Cl)c(Br)c1)c1cc(Cl)ccc1O` [Compound 17], the IC50 was > 3 µM.
With `CCN(CC)S(=O)(=O)c1ccc(F)c(C(=O)NNC(=O)c2ccc(C)cc2)c1` [Compound 8] the IC50 was > 3 µM.
With `C/C(=N\NC(=O)c1cnc(Cl)c(Br)c1)c1cc(Cl)ccc1O` [Compound 19] the IC50 was > 3 µM.
With `O=C(NNC(=O)c1cc(S(=O)(=O)N2CCOCC2)ccc1F)c1cccc(Cl)c1` [Compound 7] the IC50 was > 3 µM.
For `C/C(=N\NC(=O)c1cncc(Cl)c1)c1cc(Cl)ccc1O` [Compound 20], the IC50 was > 3 µM.
